“And” between values parts separate entries of the source, which are not always exact repeats. Equal values may be shown once.
Test system: MCF7 multi-cell spheroids with HUVEC/MSC, viability
Test: Anticancer human tumor MCF7 cell line growth inhibition [IpAb];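 further: spheroids exposed to agents for seven days before readout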
Settings: for viability, T/C: stronger effect = lower value
Method in brief: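 Spheroids of 60% malignant cells, 25% HUVEC and 15% MSC were exposed to targeted agents combined with ipatasertib or abemaciclib. Doses started at or near clinical Cmax (10 microM when unknown) and fell in half-log steps.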

[1] = curve of first compound, second compound 0.01 µM
[2] = curve of first compound, second compound 0.0316 µM
[3] = curve of first compound, second compound 0.1 µM
[4] = curve of first compound, second compound 0.316 µM
[5] = curve of first compound, second compound 1 µM
[6] = second compound 0.01 µM, first compound 0.0316 µM
[7] = second compound 0.01 µM, first compound 0.1 µM
[8] = second compound 0.01 µM, first compound 0.316 µM
[9] = second compound 0.01 µM, first compound 1 µM
[10] = second compound 0.01 µM, first compound 3.16 µM
[11] = second compound 0.01 µM, first compound 10 µM
[12] = second compound 0.0316 µM, first compound 0.0316 µM
[13] = second compound 0.0316 µM, first compound 0.1 µM
[14] = second compound 0.0316 µM, first compound 0.316 µM
[15] = second compound 0.0316 µM, first compound 1 µM
[16] = second compound 0.0316 µM, first compound 3.16 µM
[17] = second compound 0.0316 µM, first compound 10 µM
[18] = second compound 0.1 µM, first compound 0.0316 µM
[19] = second compound 0.1 µM, first compound 0.1 µM
[20] = second compound 0.1 µM, first compound 0.316 µM
[21] = second compound 0.1 µM, first compound 1 µM
[22] = second compound 0.1 µM, first compound 3.16 µM
[23] = second compound 0.1 µM, first compound 10 µM
[24] = second compound 0.316 µM, first compound 0.0316 µM
[25] = second compound 0.316 µM, first compound 0.1 µM
[26] = second compound 0.316 µM, first compound 0.316 µM
[27] = second compound 0.316 µM, first compound 1 µM
[28] = second compound 0.316 µM, first compound 3.16 µM
[29] = second compound 0.316 µM, first compound 10 µM
[30] = second compound 1 µM, first compound 0.0316 µM
[31] = second compound 1 µM, first compound 0.1 µM
[32] = second compound 1 µM, first compound 0.316 µM
[33] = second compound 1 µM, first compound 1 µM
[34] = second compound 1 µM, first compound 3.16 µM
[35] = second compound 1 µM, first compound 10 µM
[36] = curve of first compound, second compound 3.16 µM
[37] = curve of first compound, second compound 10 µM
[38] = second compound 3.16 µM, first compound 0.0316 µM
[39] = second compound 3.16 µM, first compound 0.1 µM
[40] = second compound 10 µM, first compound 0.0316 µM
[41] = second compound 10 µM, first compound 0.1 µM

## Cn1ncc(Cl)c1-c1cc(C(=O)NC(CN)Cc2cccc(F)c2)sc1Cl (configuration not stated) + CCN1CCN(Cc2ccc(Nc3ncc(F)c(-c4cc(F)c5nc(C)n(C(C)C)c5c4)n3)nc2)CC1
[1]
  IC50: 0.847 µM
[2]
  IC50: 0.758 µM
[3]
  IC50: 0.838 µM
[4]
  IC50: 1.32 µM
[5]
  IC50: 0.715 µM
[6]
  viability, T/C: 93%
[7]
  viability, T/C: 85.9%
[8]
  viability, T/C: 65.2%
[9]
  viability, T/C: 53.2%
[10]
  viability, T/C: 15%
[11]
  viability, T/C: 0.18%
[12]
  viability, T/C: 91.9%
[13]
  viability, T/C: 89.6%
[14]
  viability, T/C: 70.7%
[15]
  viability, T/C: 46.8%
[16]
  viability, T/C: 4.25%
[17]
  viability, T/C: 0.13%
[18]
  viability, T/C: 94.7%
[19]
  viability, T/C: 86.3%
[20]
  viability, T/C: 69%
[21]
  viability, T/C: 53.1%
[22]
  viability, T/C: 5.55%
[23]
  viability, T/C: 0.15%
[24]
  viability, T/C: 95.7%
[25]
  viability, T/C: 88.4%
[26]
  viability, T/C: 78.8%
[27]
  viability, T/C: 64.5%
[28]
  viability, T/C: 7.44%
[29]
  viability, T/C: 0.17%
[30]
  viability, T/C: 98.7%
[31]
  viability, T/C: 81.1%
[32]
  viability, T/C: 62.9%
[33]
  viability, T/C: 56.2%
[34]
  viability, T/C: 0.7%
[35]
  viability, T/C: 0.23%

## Cc1nc(NC(=O)N2CCCC2C(N)=O)sc1-c1ccnc(C(C)(C)C(F)(F)F)c1 (configuration not stated) + CC(C)NCC(C(=O)N1CCN(c2ncnc3c2C(C)CC3O)CC1)c1ccc(Cl)cc1
[3]
  IC50: 1.81 µM
[4]
  IC50: 0.398 µM
[5]
  IC50: < 0.0316 µM
[36]
  IC50: < 0.0316 µM
[37]
  IC50: < 0.0316 µM
[18]
  viability, T/C: 68.9%
[19]
  viability, T/C: 66.4%
[20]
  viability, T/C: 56.9%
[21]
  viability, T/C: 52.7%
[22]
  viability, T/C: 49.6%
[23]
  viability, T/C: 20.4%
[24]
  viability, T/C: 62.4%
[25]
  viability, T/C: 57%
[26]
  viability, T/C: 50.3%
[27]
  viability, T/C: 42.8%
[28]
  viability, T/C: 37.8%
[29]
  viability, T/C: 19.9%
[30]
  viability, T/C: 45.8%
[31]
  viability, T/C: 52.7%
[32]
  viability, T/C: 36.2%
[33]
  viability, T/C: 34.7%
[34]
  viability, T/C: 34.4%
[35]
  viability, T/C: 9.85%
[38]
  viability, T/C: 36.9%
[39]
  viability, T/C: 38.1%
Second compound 3.16 µM, first compound 0.316 µM
  viability, T/C: 35.4%
Second compound 3.16 µM, first compound 1 µM
  viability, T/C: 29.5%
Second compound 3.16 µM, first compound 3.16 µM
  viability, T/C: 27.1%
Second compound 3.16 µM, first compound 10 µM
  viability, T/C: 7.55%
[40]
  viability, T/C: 28.6%
[41]
  viability, T/C: 25.9%
Second compound 10 µM, first compound 0.316 µM
  viability, T/C: 26.1%
Second compound 10 µM, first compound 1 µM
  viability, T/C: 21.5%
Second compound 10 µM, first compound 3.16 µM
  viability, T/C: 28.4%
Second compound 10 µM, first compound 10 µM
  viability, T/C: 1.68%

## Cn1ncnc1[C@H]1c2n[nH]c(=O)c3cc(F)cc(c23)N[C@@H]1c1ccc(F)cc1
Compound 0.000316 µM
  viability, T/C: 139% and 91.4%
Compound 0.001 µM
  viability, T/C: 97.3% and 97.9%
Compound 0.00316 µM
  viability, T/C: 92.7% and 90%
Compound 0.01 µM
  viability, T/C: 90.3% and 100%
Compound 0.0316 µM
  viability, T/C: 94% and 102%
Compound 0.1 µM
  viability, T/C: 85.9% and 102%
Curve of compound
  IC50: > 0.1 µM

## CCCS(=O)(=O)Nc1ccc(F)c(C(=O)c2c[nH]c3ncc(-c4ccc(Cl)cc4)cc23)c1F + CCN1CCN(Cc2ccc(Nc3ncc(F)c(-c4cc(F)c5nc(C)n(C(C)C)c5c4)n3)nc2)CC1
[1]
  IC50: > 10 µM
[2]
  IC50: > 10 µM
[3]
  IC50: > 10 µM
[4]
  IC50: > 10 µM
[5]
  IC50: 8.1 µM
[6]
  viability, T/C: 97.8%
[7]
  viability, T/C: 106%
[8]
  viability, T/C: 97.5%
[9]
  viability, T/C: 90.1%
[10]
  viability, T/C: 93.4%
[11]
  viability, T/C: 84%
[12]
  viability, T/C: 89.6%
[13]
  viability, T/C: 96.7%
[14]
  viability, T/C: 91.7%
[15]
  viability, T/C: 91.9%
[16]
  viability, T/C: 85.3%
[17]
  viability, T/C: 70.1%
[18]
  viability, T/C: 101%
[19]
  viability, T/C: 96.8%
[20]
  viability, T/C: 100%
[21]
  viability, T/C: 99.4%
[22]
  viability, T/C: 88.4%
[23]
  viability, T/C: 77.3%
[24]
  viability, T/C: 98.3%
[25]
  viability, T/C: 103%
[26]
  viability, T/C: 94%
[27]
  viability, T/C: 101%
[28]
  viability, T/C: 93.1%
[29]
  viability, T/C: 76.5%
[30]
  viability, T/C: 101%
[31]
  viability, T/C: 94.7%
[32]
  viability, T/C: 92.5%
[33]
  viability, T/C: 87.8%
[34]
  viability, T/C: 72.9%
[35]
  viability, T/C: 44.5%

## Cn1ncnc1[C@H]1c2n[nH]c(=O)c3cc(F)cc(c23)N[C@@H]1c1ccc(F)cc1 + CC(C)NCC(C(=O)N1CCN(c2ncnc3c2C(C)CC3O)CC1)c1ccc(Cl)cc1
[3]
  IC50: > 0.1 µM
[4]
  IC50: > 0.1 µM
[5]
  IC50: > 0.1 µM
[36]
  IC50: 0.0203 µM
[37]
  IC50: < 0.000316 µM
Second compound 0.1 µM, first compound 0.000316 µM
  viability, T/C: 98.7%
Second compound 0.1 µM, first compound 0.001 µM
  viability, T/C: 92.8%
Second compound 0.1 µM, first compound 0.00316 µM
  viability, T/C: 89.7%
Second compound 0.1 µM, first compound 0.01 µM
  viability, T/C: 87.5%
[18]
  viability, T/C: 79.8%
[19]
  viability, T/C: 85.5%
Second compound 0.316 µM, first compound 0.000316 µM
  viability, T/C: 74.4%
Second compound 0.316 µM, first compound 0.001 µM
  viability, T/C: 79.9%
Second compound 0.316 µM, first compound 0.00316 µM
  viability, T/C: 81.2%
Second compound 0.316 µM, first compound 0.01 µM
  viability, T/C: 72.5%
[24]
  viability, T/C: 71.8%
[25]
  viability, T/C: 82.6%
Second compound 1 µM, first compound 0.000316 µM
  viability, T/C: 67.9%
Second compound 1 µM, first compound 0.001 µM
  viability, T/C: 75.6%
Second compound 1 µM, first compound 0.00316 µM
  viability, T/C: 67.2%
Second compound 1 µM, first compound 0.01 µM
  viability, T/C: 62.3%
[30]
  viability, T/C: 63%
[31]
  viability, T/C: 56.5%
Second compound 3.16 µM, first compound 0.000316 µM
  viability, T/C: 59%
Second compound 3.16 µM, first compound 0.001 µM
  viability, T/C: 56.3%
Second compound 3.16 µM, first compound 0.00316 µM
  viability, T/C: 58.3%
Second compound 3.16 µM, first compound 0.01 µM
  viability, T/C: 50.1%
[38]
  viability, T/C: 47.4%
[39]
  viability, T/C: 46.4%
Second compound 10 µM, first compound 0.000316 µM
  viability, T/C: 42.3%
Second compound 10 µM, first compound 0.001 µM
  viability, T/C: 46.5%
Second compound 10 µM, first compound 0.00316 µM
  viability, T/C: 39.9%
Second compound 10 µM, first compound 0.01 µM
  viability, T/C: 36.1%
[40]
  viability, T/C: 41.5%
[41]
  viability, T/C: 36.4%

— PubChem BioAssay AID2060329 (Molecular Pharmacology Branch, DTP, NCI, 2025)
